The results in this text go back to ChEMBL document CHEMBL1138897, “Function of the alkyl side chains of Deltalac-acetogenins in the inhibitory effect on mitochondrial complex I (NADH-ubiquinone oxidoreductase)” (Bioorg Med Chem Lett, 2006).

The assay deals with Mitochondrial complex I; NADH oxidoreductase (Bos taurus, UniProt P25708+P52505). In words: Inhibition of bovine mitochondrial NADH-ubiquinone oxidoreductase by NADH oxidase assay. The class given is protein-complex assay.
Mitochondrial complex I; NADH oxidoreductase, sequence (P25708 21-464 limits assumed, other chains not shown): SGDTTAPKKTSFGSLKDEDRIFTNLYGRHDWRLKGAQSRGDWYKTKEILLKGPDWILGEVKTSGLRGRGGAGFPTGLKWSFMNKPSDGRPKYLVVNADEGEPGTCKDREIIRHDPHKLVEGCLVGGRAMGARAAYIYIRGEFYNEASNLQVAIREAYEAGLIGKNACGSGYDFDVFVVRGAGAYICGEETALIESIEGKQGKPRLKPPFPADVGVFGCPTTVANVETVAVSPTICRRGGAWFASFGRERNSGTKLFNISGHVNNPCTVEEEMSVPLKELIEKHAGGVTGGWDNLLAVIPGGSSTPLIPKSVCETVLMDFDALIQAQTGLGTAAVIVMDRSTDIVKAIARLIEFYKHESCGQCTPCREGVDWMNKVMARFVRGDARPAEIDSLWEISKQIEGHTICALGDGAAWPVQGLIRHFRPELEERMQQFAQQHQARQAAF

For the molecule `CCCCCCCCCC[C@@H](O)[C@H]1CC[C@H]([C@H]2CC[C@H]([C@H](O)CCCCCC)O2)O1`, the IC50 came to 3.2 nM.

Molecule `CCCCCCCC[C@@H](O)[C@H]1CC[C@H]([C@H]2CC[C@H]([C@H](O)CCCCCCCC)O2)O1` yielded an IC50 of 45 nM.

Regarding `CCCCCCCCCCCC[C@@H](O)[C@H]1CC[C@H]([C@H]2CC[C@H]([C@H](O)CCCCCCCC)O2)O1`, 7.5 nM corresponded to half-maximal inhibition (IC50).

`CCCCCCCCCCCC[C@@H](O)[C@H]1CC[C@H]([C@H]2CC[C@H]([C@H](O)CCCCCCCCCCCC)O2)O1` registered an IC50 of 9 nM.

Turning to `CCCCCCCCCCCCCC[C@@H](O)[C@H]1CC[C@H]([C@H]2CC[C@H]([C@@H](C)O)O2)O1`, the IC50 was 410 nM.

`CCCCC(CC)CCC[C@@H](O)[C@H]1CC[C@H]([C@H]2CC[C@H]([C@H](O)CCCC(CC)CCCC)O2)O1` (some centres not stated) displayed an IC50 of 870 nM.

The molecule `CCCCCCCCCC[C@@H](O)[C@H]1CC[C@H]([C@H]2CC[C@H]([C@@H](C)O)O2)O1` showed an IC50 of 280 nM.

`CCCCCCCCCCCCCC[C@@H](O)[C@H]1CC[C@H]([C@H]2CC[C@H]([C@H](O)CCCCCC)O2)O1`: it took 34 nM to reach half-maximal inhibition (IC50).

The molecule `CCCCCCCCCC[C@@H](O)[C@H]1CC[C@H]([C@H]2CC[C@H]([C@H](O)CCCC(CCC)CCC)O2)O1` gave an IC50 of 27 nM.

`CCCC(CCC)CCC[C@@H](O)[C@H]1CC[C@H]([C@H]2CC[C@H]([C@H](O)CCCC(CCC)CCC)O2)O1` registered an IC50 of 1500 nM.

`CCCCCCCCCC[C@@H](O)[C@H]1CC[C@H]([C@H]2CC[C@H]([C@H](O)CC)O2)O1` had an IC50 of 45 nM.

As for `CCCCCCCCCC[C@@H](O)[C@H]1CC[C@H]([C@H]2CC[C@H]([C@H](O)CCCCCCCCCC)O2)O1` [dleta-lac-Acetogenin], the IC50 came to 1.7 nM.

What is called IC50 is the midpoint of a concentration-inhibition curve. Lower therefore signals greater potency in that assay.
